Patent publication US20260232652A1, “COMBINATIONS OF DGK (DIACYLGLYCEROL KINASE) INHIBITORS” (priority 2023, published 2026)

Columns and labels:
MC38 tumor bearing mice = assay: MC38 tumor bearing mice, mean tumor volume (Example 7); format: in vivo; settings: DGKzeta inhibitor A′ 3 mg/kg QD p.o., TPP-15285 5 mg/kg BIW i.p.
From the text: While the antibody administration was started on day 7 after tumor inoculation, the DGK inhibitor treatment started two days later, on day 9 after tumor inoculation. This schedule was designed to allow the efficient depletion of the Tregs by the anti-mouse CCR8 surrogate antibody before the DGK inhibitor activates the T cells. […] While the antibody administration was started on day 7 after tumor inoculation, the DGK inhibitor treatment started two days later, on day 9 after tumor inoculation. This schedule was designed to allow the efficient depletion of the Tregs by the anti-mouse CCR8 surrogate antibody before the DGK inhibitor activates the T cells. […] While the antibody administration was started on day 7 after tumor inoculation, the DGKalpha and DGKzeta inhibitor treatment started two days later, on day 9 after tumor inoculation. This schedule was designed to allow the efficient depletion of the Tregs by the anti-mouse CCR8 surrogate antibody before the DGK inhibitor activates the T cells. […] The DGKalpha and DGKzeta inhibitor treatment started on day 9 after tumor inoculation.

human DGKalpha = target: T1, human DGKalpha (Homo sapiens, UniProt P23743); assay: Human DGKalpha kinase activity inhibition assay (ADP-Glo); format: biochemical; settings: read-out: IC50 hDGKa
T1 construct: made in house; host or cells: baculovirus-infected Sf9 insect cells
T1 sequence (P23743 whole entry): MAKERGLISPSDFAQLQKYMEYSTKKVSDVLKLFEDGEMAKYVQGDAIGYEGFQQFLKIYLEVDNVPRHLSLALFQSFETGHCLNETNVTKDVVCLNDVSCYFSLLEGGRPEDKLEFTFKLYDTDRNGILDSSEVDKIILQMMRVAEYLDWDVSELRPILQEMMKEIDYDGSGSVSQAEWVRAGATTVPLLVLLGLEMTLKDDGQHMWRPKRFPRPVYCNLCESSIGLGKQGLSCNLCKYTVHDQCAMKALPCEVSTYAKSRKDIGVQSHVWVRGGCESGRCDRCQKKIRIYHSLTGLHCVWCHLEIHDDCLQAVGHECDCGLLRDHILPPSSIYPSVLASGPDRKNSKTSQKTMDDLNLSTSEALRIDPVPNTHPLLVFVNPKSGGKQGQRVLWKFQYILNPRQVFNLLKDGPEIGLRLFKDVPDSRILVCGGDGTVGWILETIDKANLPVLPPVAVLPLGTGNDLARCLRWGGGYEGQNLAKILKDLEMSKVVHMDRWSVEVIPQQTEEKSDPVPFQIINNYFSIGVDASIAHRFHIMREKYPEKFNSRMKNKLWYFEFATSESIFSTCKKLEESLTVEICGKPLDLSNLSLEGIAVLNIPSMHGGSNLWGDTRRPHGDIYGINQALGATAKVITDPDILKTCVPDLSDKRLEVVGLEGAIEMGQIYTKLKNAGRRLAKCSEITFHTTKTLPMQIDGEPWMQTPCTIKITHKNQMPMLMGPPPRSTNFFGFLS
Method: Human DGKalpha inhibitory activity of compounds of the present invention was quantified employing the human DGKalpha kinase activity assay as described in the following paragraphs. In essence, the enzyme activity was measured by quantification of the adenosine-di-phosphate (ADP) generated as a co-product of the enzyme reaction via the “ADP-Glo™ Kinase Assay” kit from the company Promega. This detection system works as follows: In a first step the ATP not consumed in the kinase reaction is quantitatively converted to cAMP employing an adenylate cyclase (“ADP-Glo-reagent”), then the adenylate cyclase is stopped and the ADP generated in the kinase reaction converted to ATP, which subsequently generates in a luciferase-based reaction a glow-luminescence signal (“Kinase Detection Reagent”).
C-terminally FLAG-tagged, recombinant full-length human DGKalpha (expressed in baculovirus infected insect cells, purified using anti-Flag pulldown and size exclusion chromatography as described below, DGKa_hu_1) was used as enzyme. As substrate for the kinase 1,2-dioleoyl-sn-glycerol, reconstituted in octyl-β-D-glucopyranoside micelles, was used. […] Then 35 volumes of 50 mM MOPS buffer (pH 7.4) were added to yield a solution of 0.28 mM 1,2 dioleoyl-sn-glycerol and 200 mM octyl-β-D-glucopyranoside, which was aliquoted, flash-frozen in liquid nitrogen, and stored at −20° C. until use.
For the assay 50 nl of a 100-fold concentrated solution of the test compound in dimethyl sulfoxide (DMSO, Sigma) was pipetted into either a white 1536-well or a white low-volume 384-well microtiter plate (both Greiner Bio-One, Frickenhausen, Germany). […] The concentration of DGKα was adjusted depending of the activity of the enzyme lot and was chosen appropriate to have the assay in the linear range, a typical concentration is about 0.1 nM. The reaction was stopped by the addition of […] of “ADP-Glo-reagent” (1 to 1.5 diluted with water) and the resulting mixture was incubated at 22° C. for 1 h to convert the ATP not consumed in the kinase reaction completely to cAMP. […] The amount of emitted light was taken as a measure for the amount of ADP generated and thereby for the activity of the DGKα.

[1] = system: EMT6 murine breast carcinoma cells; assay: Syngeneic EMT6 murine breast carcinoma model (Example 4); format: in vivo; settings: EMT6 s.c. in Balb/c mice; DGKalpha inhibitor A 3 mg/kg QD, DGKzeta inhibitor A′ 5 mg/kg QD, plus isotype control 5 mg/kg Q3/4D; treatment day 8 to 23
Method: EMT6 murine breast carcinoma cells were inoculated s.c. into Balb/c mice (n=10/group). […] Q3/4D, every third or fourth day; QD, once daily. […] The following eight treatment groups are included: Polyethylene glycol 400 (PEG)/ethanol (EtOH)/water (60/10/30). • 1. Anti-PD-L1 (TPP-3911, 5 mg/kg) i.p., q3/4d • 2. […] DGKzeta inhibitor A' (5 mg/kg) p.o., q.d.+Isotype control (5 mg/kg) i.p., q3/4d • 4. […] Vehicle as described supra, q.d. Mice were assigned to a study at the age of 6-8 weeks. Animal husbandry, feeding and health conditions were according to animal welfare guidelines. EMT6 cell line was cultivated with appropriate medium and split at least 3 times before inoculation. Female Balb/c mice were inoculated subcutaneously with 5×10>5 tumor cells in a medium/matrigel mixture ratio of 1:1. After 8 days the mice were randomized, and therapeutic treatment started when tumors had reached a size of approx. 40-mm^2. Tumor size was measured using calipers determining length (a) and width (b), for results see FIG. 5. Tumor volume was calculated according to: […]

[2] = Day 0 (day 7 after tumor inoculation), DGKalpha inhibitor A 5 mg/kg QD p.o.
[3] = Day 4, DGKalpha inhibitor A 5 mg/kg QD p.o.
[4] = Day 7, DGKalpha inhibitor A 5 mg/kg QD p.o.
[5] = Day 11, DGKalpha inhibitor A 5 mg/kg QD p.o.
[6] = Day 14, DGKalpha inhibitor A 5 mg/kg QD p.o.
[7] = Day 18, DGKalpha inhibitor A 5 mg/kg QD p.o.

| IC50 (human DGKalpha) [nM] | Structure (SMILES) | Mean tumor volume (MC38 tumor bearing mice; [2]) [mm^3] | Mean tumor volume (MC38 tumor bearing mice; [3]) [mm^3] | Mean tumor volume (MC38 tumor bearing mice; [4]) [mm^3] | Mean tumor volume (MC38 tumor bearing mice; [5]) [mm^3] | Mean tumor volume (MC38 tumor bearing mice; [6]) [mm^3] | Mean tumor volume (MC38 tumor bearing mice; [7]) [mm^3] | tumor growth inhibition [1] |
| --- | --- | --- | --- | --- | --- | --- | --- | --- |
| > 3630 | COc1ccc(C(=O)c2sc(N(c3ccc(F)cc3)[C@H](C)C(N)=O)nc2N)cc1 [DGKzeta inhibitor A′, (R)-2-(N-[4-amino-5-(4-methoxybenzoyl)thiazol-2-yl]-4-fluoro-anilino)propanamide] | 91.65 | 216.68 | 480.5 | 982.9 | 1448.04 | 2879.9 | only moderate tumor growth inhibitions |
| 0.25 | Cc1ccc2oc(C3CCN(c4c(C(N)=O)c(=O)n(C)c5ccc(F)cc45)CC3)nc2c1 [DGKalpha inhibitor A, 6-fluoro-1-methyl-4-[4-(5-methyl-1,3-benzoxazol-2-yl)piperidin-1-yl]-2-oxo-1,2-dihydroquinoline-3-carboxamide] | 91.74 | 216.59 | 483.4 | 1057.04 | 1585.28 | 2961.81 | only moderate tumor growth inhibitions |
